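1) Cells in 96-well plates. 2) Compound, 48 h, 5 concentrations. 3) Linear interpolation between surrounding doses. 4) Unreached endpoint = highest concentration. At the GI50, growth is halved. Definition used: TGI = concentration required for complete inhibition of growth.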
Legend:
Experiment in all cases: NCI tumour cell line growth inhibition, 48 h
COLO 205 colon = tested on: COLO 205 colon
MOLT-4 leukemia = tested on: MOLT-4 leukemia
NCI-H460 lung = tested on: NCI-H460 lung
RXF 393 renal = tested on: RXF 393 renal
PC-3 prostate = tested on: PC-3 prostate
HT29 colon = tested on: HT29 colon
OVCAR-4 ovarian = tested on: OVCAR-4 ovarian
NCI-H23 lung = tested on: NCI-H23 lung
SF-539 CNS = tested on: SF-539 CNS
HCT-116 colon = tested on: HCT-116 colon
M14 melanoma = tested on: M14 melanoma
OVCAR-5 ovarian = tested on: OVCAR-5 ovarian
SNB-19 CNS = tested on: SNB-19 CNS
CCRF-CEM leukemia = tested on: CCRF-CEM leukemia
U251 CNS = tested on: U251 CNS
HL-60(TB) leukemia = tested on: HL-60(TB) leukemia
NCI-H522 lung = tested on: NCI-H522 lung
LOX IMVI melanoma = tested on: LOX IMVI melanoma
A549 NSCLC = tested on: A549 NSCLC
SK-OV-3 ovarian = tested on: SK-OV-3 ovarian
SNB-75 CNS = tested on: SNB-75 CNS
SN12C renal = tested on: SN12C renal
SF-295 CNS = tested on: SF-295 CNS
HOP-62 NSCLC = tested on: HOP-62 NSCLC
SK-MEL-28 melanoma = tested on: SK-MEL-28 melanoma
NCI-H226 lung = tested on: NCI-H226 lung
SK-MEL-5 melanoma = tested on: SK-MEL-5 melanoma
KM12 colon = tested on: KM12 colon
SR leukemia = tested on: SR leukemia
CAKI-1 renal = tested on: CAKI-1 renal

## CN(c1ccc(F)cc1)S(=O)(=O)c1ccc(-c2cnc(C3CC3)o2)cc1
COLO 205 colon
  TGI: 2400 nM
MOLT-4 leukemia
  GI50: 80.6 nM
  TGI: > 37500 nM
NCI-H460 lung
  GI50: 46.9 nM
  TGI: 13300 nM
RXF 393 renal
  GI50: 69.8 nM
  TGI: 366 nM
PC-3 prostate
  GI50: 136 nM
  TGI: > 67800 nM
HT29 colon
  GI50: 44.3 nM
  TGI: 14600 nM
OVCAR-4 ovarian
  GI50: 772 nM
  TGI: > 100000 nM
NCI-H23 lung
  GI50: 358 nM
  TGI: > 100000 nM
SF-539 CNS
  GI50: 71.8 nM
  TGI: 1870 nM
HCT-116 colon
  GI50: 41.3 nM
M14 melanoma
  GI50: 52 nM
  TGI: 19800 nM
OVCAR-5 ovarian
  GI50: 495 nM
  TGI: > 100000 nM
SNB-19 CNS
  GI50: 102 nM
  TGI: > 100000 nM
CCRF-CEM leukemia
  GI50: 51.8 nM
  TGI: > 100000 nM
U251 CNS
  GI50: 69.4 nM
  TGI: > 39100 nM
HL-60(TB) leukemia
  GI50: 28.8 nM
  TGI: 306 nM
NCI-H522 lung
  GI50: 78.9 nM
  TGI: 1700 nM
LOX IMVI melanoma
  GI50: 69 nM
  TGI: 14100 nM
A549 NSCLC
  GI50: 180 nM
  TGI: > 100000 nM
SK-OV-3 ovarian
  GI50: 2520 nM
  TGI: > 94600 nM
SNB-75 CNS
  GI50: 12.4 nM
  TGI: 25800 nM
SN12C renal
  GI50: 887 nM
  TGI: 39100 nM
SF-295 CNS
  GI50: 52 nM
  TGI: 25100 nM
HOP-62 NSCLC
  GI50: 145 nM
  TGI: > 100000 nM
SK-MEL-28 melanoma
  GI50: 2600 nM
  TGI: > 100000 nM
NCI-H226 lung
  GI50: 239 nM
  TGI: 30800 nM
SK-MEL-5 melanoma
  GI50: 84.2 nM
  TGI: 5920 nM
KM12 colon
  GI50: 54.5 nM
  TGI: 32200 nM
SR leukemia
  GI50: 31.5 nM
CAKI-1 renal
  GI50: 73.3 nM
  TGI: > 100000 nM

From PubChem BioAssay (NCI)
